The source made the active and inactive calls. The calls are words filed in the database; no cut-off is given here.
Assays:
[1] = Drug distribution in mouse lung at 5 mg/kg, po administered as single dose and measured after 0.5 hrs by LC-MS analysis; format: ADME, organism-based; settings: read-out: Drug uptake
[2] = target: T1, Glucose-dependent insulinotropic receptor (Homo sapiens) (UniProt Q8TDV5); test: Antagonist activity at GPR119 (unknown origin) expressed in HEK293 cells assessed as inhibition of AR231453 induced […] upto 100 uM pre-incubated for 10 mins followed by AR231453 addition and measured after 15 mins by cAMP detection assay; format: functional, cell-based; settings: time 25.0 min
T1 sequence (whole entry): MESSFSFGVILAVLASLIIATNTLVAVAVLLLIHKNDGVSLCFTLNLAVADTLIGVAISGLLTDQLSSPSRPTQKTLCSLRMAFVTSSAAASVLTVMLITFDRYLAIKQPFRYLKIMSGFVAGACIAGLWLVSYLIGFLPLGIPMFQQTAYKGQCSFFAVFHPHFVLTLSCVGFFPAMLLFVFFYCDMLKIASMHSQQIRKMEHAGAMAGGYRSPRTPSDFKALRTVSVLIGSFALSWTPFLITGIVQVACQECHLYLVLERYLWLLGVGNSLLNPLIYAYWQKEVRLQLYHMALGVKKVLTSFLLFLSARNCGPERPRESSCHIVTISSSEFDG

[3] = Drug distribution in mouse liver at 5 mg/kg, po administered as single dose and measured after 0.5 hrs by LC-MS analysis; format: ADME, organism-based; settings: read-out: Drug uptake
[4] = tested on: Neutrophil; test: Inhibition of cell migration in 3-hydroxydodecanoic acid-stimulated mouse CD11bpositive Ly6Gpositive neutrophils at 0.01 to 1 uM incubated for 1.5 hrs by flow cytometric analysis; format: functional, cell-based; settings: dose 0.01-1 µM
[5] = Drug distribution in mouse brain at 5 mg/kg, po administered as single dose and measured after 0.5 hrs by LC-MS analysis; format: ADME, organism-based; settings: read-out: Drug uptake
[6] = Oral bioavailability in ICR mouse at 5 mg/kg administered as single dose; format: ADME, organism-based; settings: in vivo
[7] = tested on: Monocyte; test: Inhibition of cell migration in 6-n-[…]-stimulated mouse CD11bpositive Ly6Cpositive monocyte at 0.01 to 1 uM incubated for 1.5 hrs by flow cytometric analysis; format: functional, cell-based; settings: dose 0.01-1 µM
[8] = target: Delta-type opioid receptor (Homo sapiens) (UniProt P41143); test: Antagonist activity at DOR (unknown origin) expressed in CHO-K1 cells co-expressing Galpha16 assessed as inhibition of DPDPE induced calcium response upto 100 uM incubated for 10 mins by calcium mobilization assay; format: functional, cell-based
Sequence of Delta-type opioid receptor (Homo sapiens) (P41143 whole entry): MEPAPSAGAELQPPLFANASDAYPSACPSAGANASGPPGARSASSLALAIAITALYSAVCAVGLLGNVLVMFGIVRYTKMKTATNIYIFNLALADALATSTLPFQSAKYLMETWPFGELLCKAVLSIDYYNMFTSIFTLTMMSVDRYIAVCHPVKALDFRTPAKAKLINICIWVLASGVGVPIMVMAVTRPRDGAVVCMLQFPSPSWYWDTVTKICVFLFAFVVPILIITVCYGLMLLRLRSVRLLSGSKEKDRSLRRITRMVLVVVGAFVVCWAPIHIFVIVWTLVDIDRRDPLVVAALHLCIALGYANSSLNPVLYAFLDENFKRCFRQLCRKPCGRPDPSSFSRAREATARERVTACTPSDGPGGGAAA

[9] = AUClast in ICR mouse at 5 mg/kg, po administered as single dose; format: ADME, organism-based; set-up: dose 5 mg/kg, route po; settings: in vivo
[10] = Drug distribution in mouse plasma at 5 mg/kg, po administered as single dose and measured after 2 hrs by LC-MS analysis; format: ADME, organism-based
[11] = target: T2, Alpha-1A adrenergic receptor (Homo sapiens) (UniProt P35348); test: Antagonist activity at ARalpha1A (unknown origin) expressed in HEK293 cells co-expressing Galpha16 assessed as inhibition of Phenylephrine induced calcium response upto 100 uM incubated for 10 mins by calcium mobilization assay; format: functional, cell-based
T2 sequence (whole entry): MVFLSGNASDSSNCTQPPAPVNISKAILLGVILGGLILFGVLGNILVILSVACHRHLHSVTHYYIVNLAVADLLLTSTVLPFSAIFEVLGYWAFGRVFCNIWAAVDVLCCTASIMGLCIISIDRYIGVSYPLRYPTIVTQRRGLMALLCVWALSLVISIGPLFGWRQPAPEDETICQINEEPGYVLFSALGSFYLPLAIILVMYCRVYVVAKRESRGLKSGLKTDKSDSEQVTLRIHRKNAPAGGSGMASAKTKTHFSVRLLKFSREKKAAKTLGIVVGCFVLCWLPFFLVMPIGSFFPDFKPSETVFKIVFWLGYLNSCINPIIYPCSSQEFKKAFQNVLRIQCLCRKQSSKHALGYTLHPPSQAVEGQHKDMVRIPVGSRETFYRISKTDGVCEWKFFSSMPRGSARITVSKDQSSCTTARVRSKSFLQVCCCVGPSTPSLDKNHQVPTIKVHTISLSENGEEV

[12] = target: G-protein coupled receptor 84 (Mus musculus) (UniProt Q8CIM5); test: Antagonist activity at mouse GPR84 expressed in HEK293 cells co-expressing Galpha16 assessed as inhibition of 6-OAU induced calcium response incubated for 10 mins by calcium mobilization assay; format: functional, cell-based; settings: filed as antagonist
Sequence of G-protein coupled receptor 84 (Mus musculus) (Q8CIM5 whole entry): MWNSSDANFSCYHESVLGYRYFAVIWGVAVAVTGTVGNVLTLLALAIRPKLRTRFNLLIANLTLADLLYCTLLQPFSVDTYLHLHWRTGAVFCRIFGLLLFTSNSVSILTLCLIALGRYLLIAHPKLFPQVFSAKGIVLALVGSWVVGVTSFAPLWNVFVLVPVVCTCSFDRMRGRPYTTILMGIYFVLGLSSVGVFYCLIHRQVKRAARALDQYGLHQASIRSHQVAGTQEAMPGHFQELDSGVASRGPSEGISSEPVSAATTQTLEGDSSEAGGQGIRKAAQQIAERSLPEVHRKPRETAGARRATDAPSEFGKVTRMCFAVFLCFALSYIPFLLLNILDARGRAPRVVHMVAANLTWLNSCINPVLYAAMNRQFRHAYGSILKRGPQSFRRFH

[13] = tested on: Monocyte; test: Inhibition of cell migration in 3-hydroxydodecanoic acid-stimulated mouse CD11bpositive Ly6Cpositive monocytes at 0.01 to 1 uM incubated for 1.5 hrs by flow cytometric analysis; format: functional, cell-based; settings: dose 0.01-1 µM
[14] = target: T3, Free fatty acid receptor 3 (Homo sapiens) (UniProt O14843); test: Antagonist activity at GPR41 (unknown origin) expressed in HEK293 cells co-expressing Galpha16 assessed as inhibition of sodium butyrate induced calcium response upto 100 uM incubated for 10 mins by calcium mobilization assay; format: functional, cell-based
T3 sequence (whole entry): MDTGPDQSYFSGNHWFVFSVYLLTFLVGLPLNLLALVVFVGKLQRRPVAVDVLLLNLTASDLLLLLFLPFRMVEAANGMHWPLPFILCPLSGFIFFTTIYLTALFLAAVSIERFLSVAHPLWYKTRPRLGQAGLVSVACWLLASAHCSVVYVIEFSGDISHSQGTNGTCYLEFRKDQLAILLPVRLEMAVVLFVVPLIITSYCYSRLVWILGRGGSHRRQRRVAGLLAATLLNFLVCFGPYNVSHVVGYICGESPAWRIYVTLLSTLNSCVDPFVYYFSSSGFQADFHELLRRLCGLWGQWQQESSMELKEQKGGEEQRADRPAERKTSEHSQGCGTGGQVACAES

[15] = Drug distribution in mouse brain at 5 mg/kg, po administered as single dose and measured after 2 hrs by LC-MS analysis; format: ADME, organism-based; settings: read-out: Drug uptake
[16] = Drug distribution in mouse liver at 5 mg/kg, po administered as single dose and measured after 2 hrs by LC-MS analysis; format: ADME, organism-based; settings: read-out: Drug uptake
[17] = Drug distribution in mouse liver at 5 mg/kg, po administered as single dose and measured after 8 hrs by LC-MS analysis; format: ADME, organism-based; settings: read-out: Drug uptake
[18] = target: Beta-1 adrenergic receptor (Homo sapiens) (UniProt P08588); test: Antagonist activity at ARbeta1 (unknown origin) expressed in HEK293 cells co-expressing Galpha16 assessed as inhibition of Isoproterenol induced calcium response upto 100 uM incubated for 10 mins by calcium mobilization assay; format: functional, cell-based
Sequence of Beta-1 adrenergic receptor (Homo sapiens) (P08588 whole entry, looked up): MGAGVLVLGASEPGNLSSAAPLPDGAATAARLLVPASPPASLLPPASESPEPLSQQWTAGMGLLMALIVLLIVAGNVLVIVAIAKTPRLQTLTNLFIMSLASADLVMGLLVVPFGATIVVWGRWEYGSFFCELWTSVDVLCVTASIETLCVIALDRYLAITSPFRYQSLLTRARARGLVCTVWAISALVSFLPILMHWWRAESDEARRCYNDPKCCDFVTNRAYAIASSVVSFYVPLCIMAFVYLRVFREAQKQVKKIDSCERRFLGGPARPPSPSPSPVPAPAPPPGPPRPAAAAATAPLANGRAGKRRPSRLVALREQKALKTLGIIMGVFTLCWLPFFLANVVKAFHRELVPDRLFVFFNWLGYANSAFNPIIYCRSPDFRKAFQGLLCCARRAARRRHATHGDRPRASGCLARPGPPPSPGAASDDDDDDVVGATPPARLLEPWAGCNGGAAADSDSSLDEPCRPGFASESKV

[19] = Drug distribution in mouse lung at 5 mg/kg, po administered as single dose and measured after 8 hrs by LC-MS analysis; format: ADME, organism-based; settings: read-out: Drug uptake
[20] = target: Kappa-type opioid receptor (Homo sapiens) (UniProt P41145); test: Antagonist activity at KOR (unknown origin) expressed in HEK293 cells co-expressing Galpha16 assessed as inhibition of U50488 induced calcium response upto 100 uM incubated for 10 mins by calcium mobilization assay; format: functional, cell-based
Sequence of Kappa-type opioid receptor (Homo sapiens) (P41145 whole entry): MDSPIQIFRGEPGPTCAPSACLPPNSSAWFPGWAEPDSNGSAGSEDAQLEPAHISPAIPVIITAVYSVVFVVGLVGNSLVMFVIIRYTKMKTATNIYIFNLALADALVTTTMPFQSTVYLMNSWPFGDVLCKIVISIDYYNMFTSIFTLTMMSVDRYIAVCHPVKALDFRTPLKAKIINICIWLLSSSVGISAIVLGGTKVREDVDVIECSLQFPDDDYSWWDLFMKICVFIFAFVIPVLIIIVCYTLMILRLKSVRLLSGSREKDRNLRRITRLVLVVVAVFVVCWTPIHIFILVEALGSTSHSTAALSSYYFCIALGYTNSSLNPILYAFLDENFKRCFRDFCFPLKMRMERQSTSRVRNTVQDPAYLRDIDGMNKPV

[21] = tested on: Neutrophil; test: Inhibition of cell migration in 6-n-[…]-stimulated mouse CD11bpositive Ly6Gpositive neutrophils at 0.01 to 1 uM incubated for 1.5 hrs by flow cytometric analysis; format: functional, cell-based; settings: dose 0.01-1 µM
[22] = target: Free fatty acid receptor 1 (Homo sapiens) (UniProt O14842); test: Antagonist activity at GPR40 (unknown origin) expressed in HEK293 cells co-expressing Galpha16 assessed as inhibition of TAK-875 induced calcium response upto 100 uM incubated for 10 mins by calcium mobilization assay; format: functional, cell-based
Sequence of Free fatty acid receptor 1 (Homo sapiens) (O14842 whole entry): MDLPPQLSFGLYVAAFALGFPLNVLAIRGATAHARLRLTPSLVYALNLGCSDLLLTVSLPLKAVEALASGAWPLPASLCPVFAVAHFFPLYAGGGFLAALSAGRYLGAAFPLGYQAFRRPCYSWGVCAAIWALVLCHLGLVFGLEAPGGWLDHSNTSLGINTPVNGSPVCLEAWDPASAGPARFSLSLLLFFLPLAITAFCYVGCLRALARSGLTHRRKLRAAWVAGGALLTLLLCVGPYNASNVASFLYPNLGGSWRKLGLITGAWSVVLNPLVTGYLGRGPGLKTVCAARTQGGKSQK

- concentration at 0.5 h [1]: 18.6 ng/g
- inhibition [2]: inactive
- concentration at 0.5 h [3]: 297 ng/g
- concentration at 0.5 h [5]: 6.8 ng/g
- bioavailability [6]: 12%
- inhibition [8]: inactive
- AUC(0-t) [9]: 502 ng·h/mL
- concentration at 2 h [10]: 393 ng/mL
- inhibition [11]: inactive
- inhibition [12]: Active
- inhibition [14]: inactive
- concentration at 2 h [15]: 6.3 ng/g
- concentration at 2 h [16]: 1960 ng/g
- concentration at 8 h [17]: 1180 ng/g
- inhibition [18]: inactive
- concentration at 8 h [19]: 26.1 ng/g
- inhibition [20]: inactive
- inhibition [22]: inactive
Structure (SMILES): O=P([O-])(OC1=Cc2c(Cl)cccc2Sc2ccccc21)OC1=Cc2c(Cl)cccc2Sc2ccccc21.[Na+]
- inhibition [4]: Active
- inhibition [7]: Active
- inhibition [13]: Active
- inhibition [21]: Active

— ChEMBL document CHEMBL5380862, “Unsymmetrical Phosphodiesters as GPR84 Antagonists with High Blood Exposure for the Treatment of Lung Inflammation” (J Med Chem, 2023)
